“Also recorded” adds a separate entry of the source.
Key:
NG108-15 cells [1] = assay: Automated patch-clamp electrophysiology, resting membrane potential; type: cell-based, mouse/rat; settings: NG108-15, immediately after application
Protocol: Electrophysiology. SyncroPatch 384PE platform (Nanion Technologies®) was used to perform the automated patch-clamp experiments. This system provides giga-ohm resistance seals during simultaneous recording in the 384-well plate format. Cells were harvested 48-72 h after seeding 1-2×10^6 cells in T175 culture flasks (Falcon), then cells were rinsed with PBS (5 mL) and treated with 3 mL Accutase ([…] technologies) for 5 min at 37° C., re-suspended in 10 mL of serum-free media and pelleted at 1000 rpm for 3 min at RT. […] The cells were kept until the moment of the experiment in a temperature controlled dedicated reservoir at 10° C. and shaken at 200 rpm as described. The experiments were performed within one hour after the harvesting process. The assays were carried in single-hole chips with resistances between 4-5 MΩ after priming the chip with the following solutions (in mM), physiological extracellular solution (pECS) 10 HEPES, 140 NaCl, 5 Glucose, 4 KCl, 2 CaCl2), 1 MgCl2, 295-305 mOsm pH 7.4 (NaOH). Internal recording solution (in mM) 20 EGTA, 50 KCl, 10 NaCl, 60 KF, 10 HEPES at pH 7.2, and 285 mOsm. 15 μL of the cell suspension (50% v/v pECS/Medium no serum) was added to each well to a final density of 50-80K cells/mL. Cell capture was promoted by holding a negative pressure of −100 mbar for 20 s. After successive hyperpolarization steps from −30 mV to −100 mV enhanced the capture the seal followed by the transient addition of a high Ca2+ extracellular solution (80 mM NaCl, 3 mM KCl, 35 mM CaCl2), 10 mM MgCl2, 10 mM HEPES at pH 7.4 and 298 mOsm. High Ca2+ solution is washed out by successive external exchanges replacing half of the volume of the well each time with the external recording solution. All recording solutions were prepared with ultrapure MilliQ water (18 MD-cm). After the formation of the Giga-seal, a 250 mbar pressure was applied to break the membrane patch. Once in whole-cell configuration, different voltage protocols were applied to dissect different conductances in NG108-15 cells. Signals were recorded in the current-clamp mode “I=0” (passive conditions) where no current was injected, to monitor the membrane potential. The membrane potentials were recorded for seven sweeps of 1 sec, with an inter-sweep time of 10 s. The average membrane potentials of the 7 sweeps were reported.
Electrophysiology of NG108-15 Cells Show Changes in Resting Membrane Potential Induced by Treatment. […] Untreated cells were patched, baseline measurements were taken and then the drugs were added and the changes in the cell Vmem were recorded.

[2] = system: human glioblastoma U87 cells; assay: Growth and FUCCI assays in U87 cells (cell counts, cell cycle, recovery test); type: cell-based; settings: for FUCCI cell cycle proportion: U87, day 6
Protocol: U87 (ATCC) cells were cultured under the same conditions as the NG108-15 cells minus the HAT supplement and used at passage 7-10 for experiments.

NG108-15 cells [3] = assay: Antibody staining, BrdU and senescence assays in NG108-15 cells; type: cell-based, mouse/rat; settings: NG108-15, 6 days
Protocol: Antibody Staining, BrdU and Senescence Assays. NG108-15 cells were plated on PEI and Matrigel coated plates at 15,000 or 30,000 cells/mL, U87 cells at 10,000 cells/mL and grown in imaging media for 6 days with drug treatment. Fresh media was added every 2 days. On day 6, cells were fixed with 4% formaldehyde in PBS for 30 minutes for all antibody staining, except for BrdU which was fixed for 15 minutes, and for the senescence assay which was fixed for 20 min using the Senescence Beta-Galactosidase Staining Kit (9860, CellSignaling) and thereafter stained according to manufacturer's protocol. After fixing, cells were washed twice with PBS, and were permeabilized in PBS with 0.3% Triton-X for 15 min then washed again twice with PBS. The cells for the BrdU assay were additionally treated with 1N HCl for 10 min on ice, followed by a treatment with 2N HCl for 50 min at room temp. Cells were then blocked with standard blocking buffer comprised of TBS containing 10% goat serum, 0.1% BSA, and with 0.05% Tween 20 or without detergent for antibodies against phosphorylated proteins or monoclonal antibodies except for Anti-YAP and Anti-BrdU staining, which were done according to manufacturer's protocol. Primary antibodies were added at the following concentrations: 1:250 anti-S100 beta (GTX129573, Genetex), 1:500 anti-GFAP (AB5804, EMD-Millipore), 1:300 anti-SOX10 (ab155279, Abcam), 1:100 MAP2 (4542, CellSignaling), 1:400 anti-cleaved caspase 3 (9661, CellSignaling), 1:300 anti-Cx43 (STJ2411, St. John's Labratory), 1:800 anti-p27^Kip1 (3698, CellSignaling), 1:150 anti-BrdU (5292, CellSignaling), 1:125 anti-LC3-II (2775, CellSignaling), 8 μg/mL anti-04 (MAB1326, R&D Systems), 1:1000 anti-TH (RPCA-TH, Encor), 1:4000 anti-NSE (RPCA-NSE, Encor), 1:4000 anti-NFM (RPCA-NF-M, Encor), 0.5 μg/mL anti-TujI (801202, Biolegend), 1:400 anti-NF-KB p65 (8242, CellSignaling), 1:125 anti-phospho CREB (05-807, EMD-Millipore), 1:250 anti-vimentin (ab92547, Abcam), 1:125 anti-YAP (14074, CellSignaling). Antibodies were diluted in their respective blocking buffer and incubated overnight at 4° C. The next day, cells were washed with TBS-T or TBS for 3× for 5 min each and secondary antibody was added as follows: 1:1000 donkey anti-mouse 647 (A-31571, Thermo-Fisher) or 1:1000 donkey anti-rabbit 647 (A-31573, Thermo-Fisher). Each were diluted in blocking buffer along with 2.5 μg/mL Hoechst 33342 and incubated for 1 hour at room temperature. Cells were then washed again with TBS-T or TBS for 3× for 5 min each and covered with Gelvatol. Cells were imaged with an EVOS M7000 system, with at least 50% of each well in a 96 well plate imaged and analyzed using a CellProfiler pipeline for measuring integrated intensity, mean intensity, or nuclear to cytoplasmic ratio of mean intensities.

NG108-15 cells [4] = assay: Growth and FUCCI assays in NG108-15 cells (cell counts, cell cycle, recovery test); settings: for cell proliferation compared to control (words): NG108-15, 6 days of treatment
Protocol: Cells were plated in 96 well plates at a low confluence and drugs were added fresh every other day for 6 days. Some studies removed the drug at 6 days and added media with no drug for an additional 4 days to test for proliferation. Images of the cells were taken every day and a cell profiler pipeline was used to count the cells and determine the ratio of cells in each part of the cell cycle. […] Cell Culture. […] Cells were disassociated with Accutase and passaged when 70% confluent and maintained at 37° C. with 5% C02. Media was changed every two days. […] All drug screens including controls were done using 0.02% DMSO in the high serum Fluorobrite DMEM.
Growth and FUCCI assays. Both cell lines were plated at 5,000 cells per mL into black-walled flat-bottom 96-well plates coated with 1/50 dilution of Matrigel. Images of cells were taken on Day 0 and every subsequent day for 10 days using a Zeiss Axio1 fitted with an on-stage incubator and kept at 37° C. with 5% C02. A 5× objective was used along with filters for YFP, RFP, and CFP and careful calibration of each plate was done to ensure that the same fields of view were imaged each day. Drugs were added after the initial images were taken and then changed every two days until day 6. For recovery experiments, after imaging on day 6, all drugs were removed, and cells were put into imaging media without any added drugs. This media was changed every two days until day 10. Analysis of growth and snap shots of FUCCI reporters over the 6 days or 10 days was done using a CellProfiler [72]pipeline designed by the Broad. The fractional difference in cell number was calculated by dividing the total number of cells each day by the total number of cells from day 0. The ratio of cells in each cell cycle stage every day was determined by counting all the nuclei of one color and dividing it by the total number of nuclei. Blind quality control was done on all the images to make sure that any fibers or image artifacts were not incorrectly counted by the program.

[5] = human, in vivo; cited from earlier work
[6] = cited from earlier work

Nc1nnc(-c2cccc(Cl)c2Cl)c(N)n1 [Lamotrigine, lamotrigine]
change in resting membrane potential compared to control (NG108-15 cells [1]): significantly hyperpolarized

CO[C@H]1C[C@@H]2CC[C@@H](C)[C@@](O)(O2)C(=O)C(=O)N2CCCC[C@H]2C(=O)O[C@H]([C@H](C)C[C@@H]2CC[C@@H](O)[C@H](OC)C2)CC(=O)[C@H](C)/C=C(\C)[C@@H](O)[C@@H](OC)C(=O)[C@H](C)C[C@H](C)/C=C/C=C/C=C/1C [Rapamycin, rapamycin]
FUCCI cell cycle proportion [2]: increase in the G1 proportion | LC3-II stain (NG108-15 cells [3]): significant increase | change in resting membrane potential compared to control (NG108-15 cells [1]): significantly hyperpolarized | cell proliferation compared to control (words) (NG108-15 cells [4]): very significant decrease in proliferation | FUCCI cell cycle proportion (NG108-15 cells [4]; NG108-15, day 6): increase in cells arrested at G1; also recorded: increased the proportion of cells in G1 | blood-brain barrier penetrance [5]: cross the blood brain barrier effectively

CCOC(=O)Nc1ccc(NCc2ccc(F)cc2)cc1N [Retigabine, retigabine]
plasma protein binding affinity [6]: about 80% | BrdU incorporation (NG108-15 cells [3]): significant decrease | cleaved caspase 3 staining (NG108-15 cells [3]): decrease the cleaved caspase 3 positive cells significantly | change in resting membrane potential compared to control (NG108-15 cells [1]): significantly hyperpolarized; also recorded: hyperpolarized NG108-15 cells only slightly

Cn1nnc2c(C(N)=O)ncn2c1=O [TMZ, temozolomide]
cell proliferation compared to control (words) ([2]; U87, 6 days): significantly effective | percent reduction in cells compared to control ([2]; U87, 6 days of treatment): 43% | FUCCI cell cycle proportion [2]: did not show a large change in proportion of cells | recovery of proliferation after treatment removed ([2]; U87, drugs removed at day 6, followed to day 10): slight increase in proliferation after treatment was removed | change in resting membrane potential compared to control (NG108-15 cells [1]): significantly hyperpolarized | cell proliferation compared to control (words) (NG108-15 cells [4]): not significantly effective at reducing proliferation | cell proliferation compared to control (words) (NG108-15 cells [4]; listed as temozolomide): not effective
